Molecular target: T1, Mcl-1/Bim interaction, recombinant human Mcl-1 (171-327) (Homo sapiens, UniProt Q07820)
T1 construct: made in house
Experiment: Cell free Mcl-1: Bim Affinity Assay (Mcl-1 HTRF)
Format: binding
Experimental: Cell free Mcl-1: Bim Affinity Assay (Mcl-1 HTRF)
The inhibition of the Mcl-1/Bim interaction was measured using a time-resolved fluorescence resonance energy transfer (TR-FRET) assay. […] A biotinylated peptide derived from human Bim (residues 51-76) was purchased from CPC Scientific (San Jose, CA). The TR-FRET assay was conducted in a 384-well white OptiPlatem (PerkinElmer, Waltham, MA) in a total volume of 40 μL. […] The reaction plates were further incubated overnight and then were read on an Envision® multimode reader (PerkinElmer). […] The IC50 values of test compounds were determined from duplicate data by analyzing competition curves using a four-parameter sigmoidal model in GraphPad Prism (GraphPad Software, San Diego, CA) or in Genedata Screener® (Genedata, Basel, Switzerland).

[1] = TR-FRET, 0.1 nM Mcl-1 (171-327), 0.05 nM biotin-Bim (51-76)
[2] = cell free Mcl-1:Bim TR-FRET, recombinant human Mcl-1 (171-327)

T1 sequence (Q07820 171-327): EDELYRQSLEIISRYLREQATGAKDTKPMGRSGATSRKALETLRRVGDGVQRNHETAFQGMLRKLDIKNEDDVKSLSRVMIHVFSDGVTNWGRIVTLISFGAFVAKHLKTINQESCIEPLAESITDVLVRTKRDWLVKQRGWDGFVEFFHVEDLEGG

Row | IC50 [2] [nM] | Structure (SMILES) | IC50 [1] [nM]
1 | 2.48 | O=C1NS(=O)(=O)CCC/C=C/C[C@@H]2CC[C@H]2CN2C[C@@]3(CCCc4cc(Cl)ccc43)COc3ccc1cc32 (single isomer, unassigned) [Example 495] | 
2 | 4 | O=C1NS(=O)(=O)C/C=C\CCC[C@@H]2CC[C@H]2CN2C[C@@]3(CCCc4cc(Cl)ccc43)COc3ccc1cc32 (single isomer, unassigned) [Example 497] | 
3 | 9.03 | O=C1NS(=O)(=O)C/C=C/CCC[C@@H]2CC[C@H]2CN2C[C@@]3(CCCc4cc(Cl)ccc43)COc3ccc1cc32 (single isomer, unassigned) [Example 498] | 
4 | 2.55 | C[C@@H]1[C@@H](O)C/C=C/C[C@@H]2CC[C@H]2CN2C[C@@]3(CCCc4cc(Cl)ccc43)COc3ccc(cc32)C(=O)NS1(=O)=O (single isomer, unassigned) [Example 504] | 
5 | 15.5 | C[C@@H]1[C@H](O)C/C=C/C[C@@H]2CC[C@H]2CN2C[C@@]3(CCCc4cc(Cl)ccc43)COc3ccc(cc32)C(=O)NS1(=O)=O (single isomer, unassigned) [Example 506] | 
6 | 18.3 | CC1C(O)CC=CCC2CCC2CN2CC3(CCCc4cc(Cl)ccc43)COc3ccc(cc32)C(=O)NS1(=O)=O (single isomer, unassigned) [Example 507] | 
7 | 2.78 | C[C@@H](O)C[C@H]1CC/C=C/[C@H](O)[C@@H]2CC[C@H]2CN2C[C@@]3(CCCc4cc(Cl)ccc43)COc3ccc(cc32)C(=O)NS1(=O)=O (single isomer, unassigned) [Example 539] | 
8 | 3.43 | C[C@H](O)C[C@H]1CC/C=C/[C@H](O)[C@@H]2CC[C@H]2CN2C[C@@]3(CCCc4cc(Cl)ccc43)COc3ccc(cc32)C(=O)NS1(=O)=O (single isomer, unassigned) [Example 551] | 
9 | 0.943 | CC#CC1=CC(O)CCC(C)S(=O)(=O)NC(=O)c2ccc3c(c2)N(CC2CCC12)CC1(CCCc2cc(Cl)ccc21)CO3 (single isomer, unassigned) [Example 605] | 
10 | 13.5 | CC#CC1=CC(O)CCC(C)S(=O)(=O)NC(=O)c2ccc3c(c2)N(CC2CCC12)CC1(CCCc2cc(Cl)ccc21)CO3 (single isomer, unassigned) [Example 606] | 

More lines, now with the values behind:

Row | Structure (SMILES) | IC50 [2] [nM] | IC50 [1] [nM]
11 | CC[C@@H]1CCCOC[C@@H]2CC[C@H]2CN2C[C@@]3(CCCc4cc(Cl)ccc43)COc3ccc(cc32)C(=O)NS1(=O)=O (single isomer, unassigned) [Example 368] |  | 3.74
12 | CC[C@H]1CCCOC[C@@H]2CC[C@H]2CN2C[C@@]3(CCCc4cc(Cl)ccc43)COc3ccc(cc32)C(=O)NS1(=O)=O (single isomer, unassigned) [Example 369] |  | 3.98
13 | O=C1NS(=O)(=O)[C@H](C(F)(F)F)CCCC[C@H](O)[C@@H]2CC[C@H]2CN2C[C@@]3(CCCc4cc(Cl)ccc43)COc3ccc1cc32 (single isomer, unassigned) [Example 432] |  | 0.996
14 | O=C1NS(=O)(=O)[C@@H](C(F)(F)F)CCCC[C@H](O)[C@@H]2CC[C@H]2CN2C[C@@]3(CCCc4cc(Cl)ccc43)COc3ccc1cc32 (single isomer, unassigned) [Example 433] |  | 3.23
15 | CCC[C@@H]1CC/C=C/[C@H](O)[C@@H]2CC[C@H]2CN2C[C@@]3(CCCc4cc(Cl)ccc43)COc3ccc(cc32)C(=O)NS1(=O)=O (single isomer, unassigned) [Example 434] |  | 0.273
16 | CN(C)C(=O)[C@@H]1CC/C=C/[C@H](O)[C@@H]2CC[C@H]2CN2C[C@@]3(CCCc4cc(Cl)ccc43)COc3ccc(cc32)C(=O)NS1(=O)=O (single isomer, unassigned) [Example 436] |  | 0.243
17 | CN(C)C(=O)[C@H]1CC/C=C/[C@H](O)[C@@H]2CC[C@H]2CN2C[C@@]3(CCCc4cc(Cl)ccc43)COc3ccc(cc32)C(=O)NS1(=O)=O (single isomer, unassigned) [Example 437] |  | 3.77
18 | O=C1NS(=O)(=O)C(C(F)F)CCC=CC(O)C2CCC2CN2CC3(CCCc4cc(Cl)ccc43)COc3ccc1cc32 (single isomer, unassigned) [Example 438] |  | 0.731
19 | CCOC[C@@H]1CC/C=C/[C@H](O)[C@@H]2CC[C@H]2CN2C[C@@]3(CCCc4cc(Cl)ccc43)COc3ccc(cc32)C(=O)NS1(=O)=O (single isomer, unassigned) [Example 439] |  | 0.321
20 | CCOC[C@H]1CC/C=C/[C@H](O)[C@@H]2CC[C@H]2CN2C[C@@]3(CCCc4cc(Cl)ccc43)COc3ccc(cc32)C(=O)NS1(=O)=O (single isomer, unassigned) [Example 440] |  | 2.44
21 | C=C1CC/C=C/[C@H](O)[C@@H]2CC[C@H]2CN2C[C@@]3(CCCc4cc(Cl)ccc43)COc3ccc(cc32)C(=O)NS1(=O)=O (single isomer, unassigned) [Example 441] |  | 0.632
22 | COCC[C@@H]1CC/C=C/[C@H](O)[C@@H]2CC[C@H]2CN2C[C@@]3(CCCc4cc(Cl)ccc43)COc3ccc(cc32)C(=O)NS1(=O)=O (single isomer, unassigned) [Example 442] |  | 0.292
23 | COCC[C@H]1CC/C=C/[C@H](O)[C@@H]2CC[C@H]2CN2C[C@@]3(CCCc4cc(Cl)ccc43)COc3ccc(cc32)C(=O)NS1(=O)=O (single isomer, unassigned) [Example 443] |  | 1.51
24 | O=C1NS(=O)(=O)[C@H](CO)CC/C=C/[C@H](O)[C@@H]2CC[C@H]2CN2C[C@@]3(CCCc4cc(Cl)ccc43)COc3ccc1cc32 (single isomer, unassigned) [Example 445] |  | 0.461
25 | COCCOCC1CCC=CC(O)C2CCC2CN2CC3(CCCc4cc(Cl)ccc43)COc3ccc(cc32)C(=O)NS1(=O)=O (single isomer, unassigned) [Example 447] |  | 0.378
26 | COCCOC[C@@H]1CC/C=C/[C@H](O)[C@@H]2CC[C@H]2CN2C[C@@]3(CCCc4cc(Cl)ccc43)COc3ccc(cc32)C(=O)NS1(=O)=O (single isomer, unassigned) [Example 448] |  | 0.951
27 | O=C1NS(=O)(=O)C(CO)CCC=CCC2CCC2CN2CC3(CCCc4cc(Cl)ccc43)COc3ccc1cc32 (single isomer, unassigned) [Example 450] |  | 6.76
28 | O=C1NS(=O)(=O)[C@@H](CO)CC/C=C\C[C@@H]2CC[C@H]2CN2C[C@@]3(CCCc4cc(Cl)ccc43)COc3ccc1cc32 (single isomer, unassigned) [Example 451] |  | 11.5
29 | O=C1NS(=O)(=O)C/C=C/[C@H](O)CC[C@@H]2CC[C@H]2CN2C[C@@]3(CCCc4cc(Cl)ccc43)COc3ccc1cc32 (single isomer, unassigned) [Example 500] | 7.08 | 
30 | O=C1NS(=O)(=O)C/C=C/[C@@H](O)CC[C@@H]2CC[C@H]2CN2C[C@@]3(CCCc4cc(Cl)ccc43)COc3ccc1cc32 (single isomer, unassigned) [Example 501] | 1.49 | 
31 | O=C1NS(=O)(=O)CCC[C@H](O)CC[C@@H]2CC[C@H]2CN2C[C@@]3(CCCc4cc(Cl)ccc43)COc3ccc1cc32 (single isomer, unassigned) [Example 502, (1S,3′R,6′S,9′R)-6-chloro-9′-hydroxy-3,4-dihydro-2H,15′H-spiro[naphthalene-1,22′-[20]oxa[13]thia[1,14]diazatetracyclo[14.7.2.0^3,6.0^19,24]pentacosa [16,18,24]trien]-15′-one 13′,13′-dioxide or (1S,3′R,6′S,9′S)-6-chloro-9′-hydroxy-3,4-dihydro-2H,15′H-spiro[naphthalene-1,22′-[20]oxa[13]thia[1,14]diazatetracyclo[14.7.2.0^3,6.0^19,24]pentacosa [16,18,24]trien]-15′-one 13′,13′-dioxide] | 2.31 | 
32 | O=C1NS(=O)(=O)CCC[C@@H](O)CC[C@@H]2CC[C@H]2CN2C[C@@]3(CCCc4cc(Cl)ccc43)COc3ccc1cc32 (single isomer, unassigned) [Example 503, (1S,3′R,6′S,9′S)-6-chloro-9′-hydroxy-3,4-dihydro-2H,15′H-spiro[naphthalene-1,22′-[20]oxa[13]thia[1,14]diazatetracyclo[14.7.2.0^3,6.0^19,24]pentacosa [16,18,24]trien]-15′-one 13′,13′-dioxide or (1S,3′R,6′S,9′R)-6-chloro-9′-hydroxy-3,4-dihydro-2H,15′H-spiro[naphthalene-1,22′-[20]oxa[13]thia[1,14]diazatetracyclo[14.7.2.0^3,6.0^19,24]pentacosa [16,18,24]trien]-15′-one 13′,13′-dioxide] | 3.96 | 
33 | O=C1NS(=O)(=O)C[C@@H](O)/C=C/C[C@H](O)[C@@H]2CC[C@H]2CN2C[C@@]3(CCCc4cc(Cl)ccc43)COc3ccc1cc32 (single isomer, unassigned) [Example 597] | 1.46 | 
34 | O=C1NS(=O)(=O)C[C@H](O)/C=C/C[C@H](O)[C@@H]2CC[C@H]2CN2C[C@@]3(CCCc4cc(Cl)ccc43)COc3ccc1cc32 (single isomer, unassigned) [Example 598] | 1.49 | 
35 | C[C@@H]1CCC2=NO[C@H](C2)[C@@H]2CC[C@H]2CN2C[C@@]3(CCCc4cc(Cl)ccc43)COc3ccc(cc32)C(=O)NS1(=O)=O (single isomer, unassigned) [Example 609] | 3.84 | 
36 | O=C1NS(=O)(=O)[C@H](CCOc2ccc(Br)cc2)CC/C=C/[C@H](O)[C@@H]2CC[C@H]2CN2C[C@@]3(CCCc4cc(Cl)ccc43)COc3ccc1cc32 (single isomer, unassigned) [Example 625] | 38.3 | 
37 | O=C(C[C@@H]1CC/C=C/[C@H](O)[C@@H]2CC[C@H]2CN2C[C@@]3(CCCc4cc(Cl)ccc43)COc3ccc(cc32)C(=O)NS1(=O)=O)Nc1cccc(Cl)c1 (single isomer, unassigned) [Example 627] | 10.1 | 
